{
  "source": "patent US6900219B2",
  "about": "“ABCA-1 elevating compounds” (CV Therapeutics, Inc., priority 2002, dated 2005)",
  "data": [
    {"test_system": "ABCA-1 gene", "test": "compounds tested and found to elevate cellular expression of the ABCA-1 gene (Examples 1-6; test not named)", "format": "cell-based", "experimental": "Activity testing is conducted as described in those patents and patent applications referenced above, and in the Examples below, and by methods apparent to one skilled in the art.", "values": [
      {"smiles": "O=C(Nc1ncc(-c2ccc(F)cc2)s1)C1CC1", "note": "[cyclopropyl-N-[5-(4-fluorophenyl)(1,3-thiazol-2-yl)]carboxamide]", "cellular expression of the ABCA-1 gene": "elevate cellular expression of the ABCA-1 gene"},
      {"smiles": "CCOC(=O)C1CCCCN1C(=O)c1ccc2c(c1)OCO2", "note": "(stereo not shown) [ethyl 1-(2H-benzo[d]1,3-dioxolen-5-ylcarbonyl)piperidine-2-carboxylate]", "cellular expression of the ABCA-1 gene": "elevate cellular expression of the ABCA-1 gene"},
      {"smiles": "CCOC(=O)C1=C(NCCc2ccccc2)CCN(C(=O)c2ccc(Cl)cc2Cl)C1", "note": "[ethyl 1-[(2,4-dichlorophenyl)carbonyl]-4-[(2-phenylethyl)amino]-1,2,5,6-tetrahydropyridine-3-carboxylate]", "cellular expression of the ABCA-1 gene": "elevate cellular expression of the ABCA-1 gene"},
      {"smiles": "CCOC(=O)C1=C(NCCc2ccccc2)CCN(C(=O)c2ccc([N+](=O)[O-])cc2Cl)C1", "note": "[ethyl 1-[(2-chloro-4-nitrophenyl)carbonyl]-4-[(2-phenylethyl)amino]-1,2,5,6-tetrahydropyridine-3-carboxylate]", "cellular expression of the ABCA-1 gene": "elevate cellular expression of the ABCA-1 gene"},
      {"smiles": "CCOC(=O)C1=C(NCCc2ccccc2)CCN(C(=O)c2ccccc2C)C1", "note": "[ethyl 1-[(2-methylphenyl)carbonyl]-4-[(2-phenylethyl)amino]-1,2,5,6-tetrahydropyridine-3-carboxylate]", "cellular expression of the ABCA-1 gene": "elevate cellular expression of the ABCA-1 gene"},
      {"smiles": "CCOC(=O)C1=C(NCCc2ccccc2)CCN(C(=O)c2ccc(Br)cc2)C1", "note": "[ethyl 1-[(4-bromophenyl)carbonyl]-4-[(2-phenylethyl)amino]-1,2,5,6-tetrahydropyridine-3-carboxylate]", "cellular expression of the ABCA-1 gene": "elevate cellular expression of the ABCA-1 gene"},
      {"smiles": "CCOC(=O)C1=C(NCCc2ccccc2)CCN(C(=O)c2ccc(CC)cc2)C1", "note": "[ethyl 1-[(4-ethylphenyl)carbonyl]-4-[(2-phenylethyl)amino]-1,2,5,6-tetrahydropyridine-3-carboxylate]", "cellular expression of the ABCA-1 gene": "elevate cellular expression of the ABCA-1 gene"},
      {"smiles": "CCOC(=O)C1=C(NCCc2ccccc2)CCN(C(=O)c2ccc(F)cc2)C1", "note": "[ethyl 1-[(4-fluorophenyl)carbonyl]-4-[(2-phenylethyl)amino]-1,2,5,6-tetrahydropyridine-3-carboxylate]", "cellular expression of the ABCA-1 gene": "elevate cellular expression of the ABCA-1 gene"},
      {"smiles": "CCOC(=O)C1=C(NCCc2ccccc2)CCN(C(=O)c2ccc(OC)cc2)C1", "note": "[ethyl 1-[(4-methoxyphenyl)carbonyl]-4-[(2-phenylethyl)amino]-1,2,5,6-tetrahydropyridine-3-carboxylate]", "cellular expression of the ABCA-1 gene": "elevate cellular expression of the ABCA-1 gene"},
      {"smiles": "CCOC(=O)C1=C(NCCc2ccccc2)CCN(C(=O)c2ccc(C)cc2)C1", "note": "[ethyl 1-[(4-methylphenyl)carbonyl]-4-[(2-phenylethyl)amino]-1,2,5,6-tetrahydropyridine-3-carboxylate]", "cellular expression of the ABCA-1 gene": "elevate cellular expression of the ABCA-1 gene"},
      {"smiles": "CCOC(=O)C1=C(NCCc2ccccc2)CCN(C(=O)c2ccc([N+](=O)[O-])cc2)C1", "note": "[ethyl 1-[(4-nitrophenyl)carbonyl]-4-[(2-phenylethyl)amino]-1,2,5,6-tetrahydropyridine-3-carboxylate]", "cellular expression of the ABCA-1 gene": "elevate cellular expression of the ABCA-1 gene"},
      {"smiles": "CCOC(=O)C1=C(NCCc2ccccc2)CCN(C(=O)c2ccc(C(C)(C)C)cc2)C1", "note": "[ethyl 1-[(4-t-butylphenyl)carbonyl]-4-[(2-phenylethyl)amino]-1,2,5,6-tetrahydropyridine-3-carboxylate]", "cellular expression of the ABCA-1 gene": "elevate cellular expression of the ABCA-1 gene"},
      {"smiles": "CCOC(=O)Cc1csc(NC(=O)Nc2ccccc2F)n1", "note": "[ethyl 2-(2-{[(2-fluorophenyl)amino]carbonylamino}-1,3-thiazol-4-yl)acetate]", "cellular expression of the ABCA-1 gene": "elevate cellular expression of the ABCA-1 gene"},
      {"smiles": "CCOC(=O)CNC(=O)N(CCN(C)C)C(C)c1nc2ccccc2c(=O)n1-c1ccc2ccccc2c1", "note": "(stereo not shown) [ethyl 2-({N-[2-(dimethylamino)ethyl]-N-[(3-(2-naphthyl)-4-oxo(3-hydroquinazolin-2-yl))ethyl]carbamoyl}amino)acetate]", "cellular expression of the ABCA-1 gene": "elevate cellular expression of the ABCA-1 gene"},
      {"smiles": "CCOC(=O)CNC(=O)N(CCOC)C(C)c1nc2ccccc2c(=O)n1-c1ccc(Br)cc1", "note": "(stereo not shown) [ethyl 2-[(N-{[3-(4-bromophenyl)-4-oxo(3-hydroquinazolin-2-yl)]ethyl}-N-(2-methoxyethyl)carbamoyl)amino]acetate]", "cellular expression of the ABCA-1 gene": "elevate cellular expression of the ABCA-1 gene"},
      {"smiles": "CCOC(=O)CCN(CCc1ccccc1)C(=O)c1ccc2c(c1)OCO2", "note": "[ethyl 3-[2H-benzo[d]1,3-dioxolen-5-yl-N-(2-phenylethyl)carbonylamino]propanoate]", "cellular expression of the ABCA-1 gene": "elevate cellular expression of the ABCA-1 gene"},
      {"smiles": "CCOC(=O)CCN(C(=O)CCc1ccccc1)c1ccc(Br)cc1", "note": "[ethyl 3-[(4-bromophenyl)-N-(2-phenylethyl)carbonylamino]propanoate]", "cellular expression of the ABCA-1 gene": "elevate cellular expression of the ABCA-1 gene"},
      {"smiles": "CCOC(=O)CCN(C(=O)CCc1ccccc1)c1ccc(CC)cc1", "note": "[ethyl 3-[(4-ethylphenyl)-N-(2-phenylethyl)carbonylamino]propanoate]", "cellular expression of the ABCA-1 gene": "elevate cellular expression of the ABCA-1 gene"},
      {"smiles": "CCOC(=O)C1=C(NCCc2ccccc2)CCN(C(=O)c2ccc(-c3ccccc3)cc2)C1", "note": "[ethyl 4-[(2-phenylethyl)amino]-1-[(4-phenylphenyl)carbonyl]-1,2,5,6-tetrahydropyridine-3-carboxylate]", "cellular expression of the ABCA-1 gene": "elevate cellular expression of the ABCA-1 gene"},
      {"smiles": "CCOC(=O)c1ccc(NC(=O)Nc2ccccc2)cc1", "note": "[ethyl 4-[(phenylamino)carbonylamino]benzoate]", "cellular expression of the ABCA-1 gene": "elevate cellular expression of the ABCA-1 gene"},
      {"smiles": "CCOC(=O)CC(=O)CSc1nnc(NC(=O)c2ccc(Cl)cc2)s1", "note": "[ethyl 4-{5-[(4-chlorophenyl)carbonylamino](1,3,4-thiadiazol-2-ylthio)}-3-oxobutanoate]", "cellular expression of the ABCA-1 gene": "elevate cellular expression of the ABCA-1 gene"},
      {"smiles": "O=C(Nc1ncc(-c2ccccc2)s1)c1ccno1", "note": "[isoxazol-5-yl-N-(5-phenyl(1,3-thiazol-2-yl))carboxamide]", "cellular expression of the ABCA-1 gene": "elevate cellular expression of the ABCA-1 gene"},
      {"smiles": "COC(=O)c1ccc(C(=O)NC2=NCCS2)cc1", "note": "[methyl 4-(N-(1,3-thiazolin-2-yl)carbamoyl)benzoate]", "cellular expression of the ABCA-1 gene": "elevate cellular expression of the ABCA-1 gene"},
      {"smiles": "COC(=O)c1ccc(C(=O)NC2=NC(=O)CS2)cc1", "note": "[methyl 4-[N-(4-oxo-1,3-thiazolin-2-yl)carbamoyl]benzoate]", "cellular expression of the ABCA-1 gene": "elevate cellular expression of the ABCA-1 gene"},
      {"smiles": "COC(=O)c1ccc(/N=C(\\NC2CCCCC2)N2CCN(Cc3ccc4c(c3)OCO4)CC2)c(O)c1", "note": "[methyl 4-{(1E)-1-aza-2-[4-(2H-benzo[d]1,3-dioxolen-5-ylmethyl)piperazinyl]-2-(cyclohexylamino)vinyl}-3-hydroxybenzoate]", "cellular expression of the ABCA-1 gene": "elevate cellular expression of the ABCA-1 gene"},
      {"smiles": "Nc1c(C(=O)Oc2ccccc2)oc2nc3c(cc12)CCC3", "note": "[phenyl 3-amino-5,6,7-trihydrocyclopenta[1,2-b]furano[4,5-e]pyridine-2-carboxylate]", "cellular expression of the ABCA-1 gene": "elevate cellular expression of the ABCA-1 gene"},
      {"smiles": "O=C(NC1=NCCS1)c1ccccc1", "note": "[phenyl-N-(1,3-thiazolin-2-yl)carboxamide]", "cellular expression of the ABCA-1 gene": "elevate cellular expression of the ABCA-1 gene"},
      {"smiles": "O=C(NCCc1ccccn1)c1ccccc1", "note": "[phenyl-N-(2-(2-pyridyl)ethyl)carboxamide]", "cellular expression of the ABCA-1 gene": "elevate cellular expression of the ABCA-1 gene"},
      {"smiles": "O=C1CSC(NC(=O)c2ccccc2)=N1", "note": "[phenyl-N-(4-oxo(1,3-thiazolin-2-yl))carboxamide]", "cellular expression of the ABCA-1 gene": "elevate cellular expression of the ABCA-1 gene"},
      {"smiles": "CCc1c(C(=O)NCC(C)C)cnn1-c1nc(-c2ccc(Br)cc2)cs1", "note": "[{1-[4-(4-bromophenyl)(1,3-thiazol-2-yl)]-5-ethylpyrazol-4-yl}-N-(2-methylpropyl)carboxamide]", "cellular expression of the ABCA-1 gene": "elevate cellular expression of the ABCA-1 gene"},
      {"smiles": "CCCCCCNC(=O)c1cnn(-c2nc(-c3ccc(Br)cc3)cs2)c1CC", "note": "[{1-[4-(4-bromophenyl)(1,3-thiazol-2-yl)]-5-ethylpyrazol-4-yl}-N-hexylcarboxamide]", "cellular expression of the ABCA-1 gene": "elevate cellular expression of the ABCA-1 gene"},
      {"smiles": "CCc1c(C(=O)N2CCN(C(=O)c3ccc4ccccc4c3)C(C)C2)cnn1-c1nc(-c2ccc(Cl)cc2)cs1", "note": "(stereo not shown) [{1-[4-(4-chloro-phenyl)-thiazol-2-yl]-5-ethyl-1H-pyrazol-4-yl}-[3-methyl-4-(naphthalene-2-carbonyl)-piperazin-1-yl]-methanone]", "cellular expression of the ABCA-1 gene": "elevate cellular expression of the ABCA-1 gene"},
      {"smiles": "Cc1c(C(=O)NCc2ccccc2)cnn1-c1nc(-c2ccc(Cl)cc2)cs1", "note": "[{1-[4-(4-chlorophenyl)(1,3-thiazol-2-yl)]-5-methylpyrazol-4-yl}-N-benzylcarboxamide]", "cellular expression of the ABCA-1 gene": "elevate cellular expression of the ABCA-1 gene"},
      {"smiles": "Cc1c(C(=O)NC2CC2)cnn1-c1nc(C(C)(C)C)cs1", "note": "[{1-[4-(tert-butyl)(1,3-thiazol-2-yl)]-5-methylpyrazol-4-yl}-N-cyclopropylcarboxamide]", "cellular expression of the ABCA-1 gene": "elevate cellular expression of the ABCA-1 gene"},
      {"smiles": "CCc1c(C(=O)NCCC(C)C)cnn1-c1nc(-c2ccc(OC)cc2)cs1", "note": "[{5-ethyl-1-[4-(4-methoxyphenyl)(1,3-thiazol-2-yl)]pyrazol-4-yl}-N-(3-methylbutyl)carboxamide]", "cellular expression of the ABCA-1 gene": "elevate cellular expression of the ABCA-1 gene"},
      {"smiles": "CCc1c(C(=O)NCCc2ccccc2)cnn1-c1nc(-c2ccc(C)cc2)cs1", "note": "[{5-ethyl-1-[4-(4-methylphenyl)(1,3-thiazol-2-yl)]pyrazol-4-yl}-N-(2-phenylethyl)carboxamide]", "cellular expression of the ABCA-1 gene": "elevate cellular expression of the ABCA-1 gene"},
      {"smiles": "Cc1c(C(=O)NCCc2ccccc2)cnn1-c1nc(-c2ccc(F)cc2)cs1", "note": "[{5-methyl-1-[4-(4-fluorophenyl)(1,3-thiazol-2-yl)]pyrazol-4-yl}-N-(2-phenylethyl)carboxamide]", "cellular expression of the ABCA-1 gene": "elevate cellular expression of the ABCA-1 gene"}
    ]}
  ]
}
